Entries after “also recorded” stand apart in the source; their conditions may differ.
What was measured:
[1] = system: NF-κB; experiment: WB of NF-κB in thrombin-challenged HMC3 cells; assay type: cell-based, human; conditions: thrombin 100 U/ml, SZ-3 10, 5 μM after 3 h, WB after 24 h
Experimental: (§1) FIG. 11: SZ-3 reduces inflammation through NF-κB mechanism. Cultured HMC3 cells were challenged with thrombin 100 U/ml and after 3 h were treated with different concentrations of SZ-3 (10 and 5 μM). Cells were harvested for WB analysis after 24 h.
(§2) WB was used to assay the expression levels of cofilin, phosphocofilin, and NF-κB. […] Without wishing to be bound by theory, the role of phosphocofilin is not fully understood, but it is believed that it is decreased in stress conditions and its restoration is beneficial.
(§3) HMC3 cells were cultured in DMEM/F12 medium supplemented with 5% horse serum (HS), 10% fetal bovine serum (FBS), and 1% penicillin/streptomycin. Cells were stimulated with 100 U/ml thrombin from bovine plasma (Sigma) and treated without (vehicle) or with different concentrations of SZ-3.
(§4) Cells were harvested and washed with ice-cold lysis buffer (250 mM sucrose, 1.5 mM MgCl2, 10 mM KCl, 20 mM HEPES 7.6 pH, 1 mM of dithiothreitol, 1 mM phenylmethylsulfonyl fluoride, 50 mM NaF, 10 mM sodium orthovanadate, 20 mM sodium pyrophosphate, and protease inhibitors) for 15 min then supplemented with 5% of Nonidet P-40 for 2 min. […] Glyceraldehyde 3-phosphate dehydrogenase (GAPDH) or beta-actin were used as the loading control, and band intensity analyzed using Bio-Rad Chemi-Doc XRS Image Lab Software.

[2] = molecular target: cofilin (Homo sapiens, UniProt P23528); experiment: In vitro F-actin depolymerization assay; assay type: biochemical; parameters: purchased Cytoskeleton, Inc; conditions: SZ-3 5 μM, cofilin 0.25 μM, 30 min, rabbit muscle actin, SiR-actin probe
Experimental: The inhibitory effect of SZ-3 was tested using an F-actin depolymerization assay. Rabbit muscle actin (Cytoskeleton, Inc.) was reconstituted with general actin and incubated on ice for 30 min to depolymerize any existing actin oligomers. Cofilin (Cytoskeleton, Inc.) at 0.25 μM and SZ-3 (5 μM) were added together to the corresponding vials and incubated for 30 min to ensure cofilin depolymerization and efficacy of the SZ-3. SiR-actin probe (Cytoskeleton, Inc.) was added at 50 nM and incubated for 1 h to visualize actin filaments. Finally, 5-10 μl of each group was added to a slide and imaged with fluorescent microscope at 652 nm.
Cofilin inhibition with SZ-3 was tested using an f-actin depolymerization high-throughput screening assay.
SZ-3 inhibitory effect on cofilin was tested using F-actin depolymerization assay. Briefly, rabbit muscle actin (Cytoskeleton, Inc.) was reconstituted with general actin buffer to 40 μM (stock) and incubated on ice for 30 min to depolymerize any existing actin oligomers. Next, actin stock solution was further diluted to a 1 μM working solution and then polymerized into filaments with the addition of 1/10 th the volume of actin polymerization buffer (Cytoskeleton, Inc.). The mix was incubated at room temperature for 1 h to ensure optimum polymerization. […]

[3] = system: mice with hemorrhage; experiment: Experimental hemorrhage in mice by collagenase injection into the striatum; assay type: in vivo
Experimental: Mice were subjected to experimental hemorrhage by injecting collagenase into the striatum. After 3 h of collagenase injection, mice were treated with two concentrations of SZ-3 (1 and 10 mg/kg, i.p.) followed by 12 hourly injections until day 3. Mice were evaluated for baseline rotarod and grip strength 24 h prior and after hemorrhage and then after every 24 hs for three days. N=12 per group. FIG. 12A depicts a timeline of the experiment, and photographs of the mice.
The top column is Sham, the second column is vehicle, the third column is SZ-3 (1 mg/kg), and the fourth column is SZ-3 (10 mg/kg).
Finally, it was desired to elucidate if treatment with SZ-3 can mitigate the hemorrhage induced behavioral deficits. Hemorrhage was induced in mice, and the mice were then treated with SZ-3. Mice were subjected to experimental hemorrhage by injecting collagenase into the mice striatum. Collagenase model simulates the hemorrhage by inducing vessel damage resulting in localized hematomas. This model is widely used in hemorrhagic stroke research.
Mice were treated with two concentrations of SZ-3 (1 and 10 mg/kg, i.p;) immediately after 3 h of hemorrhage and then after every 12 h for 3 days (FIG. 12A). […] Normally, the mice are substantially paralyzed a short time after the stroke.

[4] = system: SHSY cells; experiment: Toxicity of SZ-3 in cultured SHSY cells (MTT); assay type: cell-based; conditions: different concentrations of SZ-3, 5-20 μM range
Experimental: (§5) The synthesized SZ-3 compound was tested for neuroprotective properties in cell-based models using a neuroblastoma cell line (SHSY) and thrombin as a stressor. Thrombin was used as a cell death inducer in cell-based models for hemorrhagic brain injury. SHSY cells were challenged by 100 U/ml thrombin and after 3 hrs treated with different concentrations of synthesized compounds. […] Cell death is observed through fluorescence.
(§6) All types of cells used in these examples were assayed for viability and proliferation after 24-72 h using the MTT or CellTiter-Glo Luminescent assay Promega (Madison, Wis.). Cells after treatment were incubated with MTT reagent for 3 h in 5% CO2 at 37° C. The medium was replaced with DMSO to dissolve formazan crystals. Absorbance was read at 570 nm to quantify cell viability. CellTiter-Glo reagents were used in some experiments by adding equal amounts of reagent to the amount of medium containing cells for a 96-well plate. Contents were mixed for 2 minutes then incubated the plate for 10 minutes at room temperature to stabilize luminescent signal.

[5] = system: SHSY cells; experiment: Thrombin-induced cell death in SHSY cells (MTT); assay type: cell-based, human; conditions: thrombin 100 U/ml
Experimental: as §5, §6

[6] = system: cofilin; experiment: WB analysis of cofilin expression in thrombin-challenged SHSY cells; assay type: cell-based, human; conditions: thrombin 100 U/ml, SZ-3 5 μM after 3 h, WB after 24 h
Experimental: as §5
as §4, with “min. Cytosolic fraction was collected from the supernatant after centrifugation at 14,000 g for 10 min. Bradford reagent (Bio-Rad Laboratories) was used to determine the protein concentrations, and equal amounts of samples were loaded onto 10-15% SDS-polyacrylamide gels, separated by electrophoresis, and transferred to PVDF membranes.” for “min.”

[7] = system: TNF-α; experiment: TNF-α ELISA in LPS-challenged HMC3 cells; assay type: cell-based, human; conditions: SZ-3 10 μM and 5 μM
Experimental: (§7) Cultured HMC3 cells were challenged with 0.1 μg/mL of LPS and treated with different concentrations of SZ-3 concurrently. At the end of the experiment cells were harvested for MTT by CellTiter-Glo Luminescent assay (FIG. 9A), Griess assay for NO release (FIG. 9B), and TNF-α by ELISA (FIG. 9C).
After hemorrhage, activated microglia release proinflammatory mediators such as cytokines, chemokines, and nitric oxide (NO) leading to secondary injury which may be worse than the initial insult and may result in severe neurological deficits and death. In order to test whether the synthesized compound will reduce or stop microglial activation and inflammation after hemorrhage, whether the compound poses toxicity to microglia was first assessed. […]
Next, a NO release assay was performed to determine if SZ-3 can reduce the NO release. […] Next, whether the major inflammatory cytokine TNF-α is reduced with the SZ-3 treatment was evaluated. […]
HMC3 cells (30,000 cells/well in a 96-well plate) were stimulated by LPS ([…]), then treated with DMSO or different concentrations of drug 3 h later. The supernatants were collected after 24 h, and the concentrations of TNF-α were measured using enzyme-linked immunosorbent assay (ELISA) according to the kit's instructions (R&D Systems, Inc.).

[8] = system: cofilin; experiment: WB of cofilin in thrombin-challenged HMC3 cells; assay type: cell-based, human; conditions: thrombin 100 U/ml
Experimental: as §1, §2, §3
Cells were harvested and washed with ice-cold lysis buffer (250 mM sucrose, 1.5 mM MgCl2, 10 mM KCl, 20 mM HEPES 7.6 pH, 1 mM of dithiothreitol, 1 mM phenylmethylsulfonyl fluoride, 50 mM NaF, 10 mM sodium orthovanadate, 20 mM sodium pyrophosphate, and protease inhibitors) for 15 min then supplemented with 5% of Nonidet P-40 for 2 min. Cytosolic fraction was collected from the supernatant after centrifugation at 14,000 g for 10 min. Bradford reagent (Bio-Rad Laboratories) was used to determine the protein concentrations, and equal amounts of samples were loaded onto 10-15% SDS-polyacrylamide gels, separated by electrophoresis, and transferred to PVDF membranes. Membranes were blocked and incubated with primary antibodies; cofilin, phosphocofilin, and NF-kB (Cell Signaling Technology) at 4° C. overnight. Membranes were incubated for 1 h at room temperature with horseradish peroxidase-conjugated secondary antibody (1:5000; Jackson ImmunoResearch) after washing. Glyceraldehyde 3-phosphate dehydrogenase (GAPDH) or beta-actin were used as the loading control, and band intensity analyzed using Bio-Rad Chemi-Doc XRS Image Lab Software.

[9] = system: HMC3 cells; experiment: Cell viability of LPS-challenged HMC3 cells (CellTiter-Glo Luminescent assay); assay type: cell-based; conditions: LPS 0.1 μg/mL, SZ-3 5-10 μM concurrently
Experimental: as §7
(§8) After hemorrhage, activated microglia release proinflammatory mediators such as cytokines, chemokines, and nitric oxide (NO) leading to secondary injury which may be worse than the initial insult and may result in severe neurological deficits and death. In order to test whether the synthesized compound will reduce or stop microglial activation and inflammation after hemorrhage, whether the compound poses toxicity to microglia was first assessed. Human microglial cell line (HMC3) was challenged or activated with lipopolysaccharide (LPS) ([…]) and treated with different concentrations of the SZ-3 (10 and 5 μM) concurrently. CellTiter-Glo luminescent assay was used for cell viability; Griess reagent assay was used for NO release and ELISA was used for TNF-α estimations.
All types of cells used in these examples were assayed for viability and proliferation after 24-72 h using the MTT or CellTiter-Glo Luminescent assay Promega (Madison, Wis.). Cells after treatment were incubated with MTT reagent for 3 h in 5% CO2 at 37° C. […] Absorbance was read at 570 nm to quantify cell viability. […]

[10] = system: NO release from HMC3 cells; experiment: Griess assay for NO release from LPS-challenged HMC3 cells; assay type: cell-based, human
Experimental: as §7, §8
Next, a NO release assay was performed to determine if SZ-3 can reduce the NO release. […] Next, whether the major inflammatory cytokine TNF-α is reduced with the SZ-3 treatment was evaluated. As a consequence of microglial activation, TNF-α levels are increased, and the same pattern was observed when cells were challenged with LPS. There was a significant increase in TNF-α after LPS challenge.
NO was indirectly assayed through the measurement of nitrite by mixing a sample of culture medium with an equal volume of Griess reagent (0.3% naphthylethylenediamine dihydrochloride, 3% sulfanilamide, 8% phosphoric acid) and reading at 540 nm.

[11] = system: phosphocofilin; experiment: WB of phosphocofilin in thrombin-challenged HMC3 cells; assay type: cell-based, human; conditions: thrombin 100 U/ml, SZ-3 10, 5 μM after 3 h, WB after 24 h
Experimental: as §1, §2, §3, §4

[12] = Solubility of SZ-3 in the mouse study; assay type: physicochemical
[13] = system: HMC3 cells; experiment: Thrombin-induced cell death in HMC3 cells; assay type: cell-based, human; conditions: thrombin 100 U/ml, SZ-3 10 μM
Experimental: as §1, §6

[14] = system: HMC3 cells; experiment: Scratch wound assay (IncuCyte) of microglial migration and proliferation; assay type: cell-based, human; conditions: LPS 200 ng/ml
Experimental: HMC3 cells were seeded onto a poly-D-lysine hydrobromidecoated-coated 96-well culture plate and placed overnight in a 37° C. IncuCyte S3. WoundMaker was used to simultaneously create wounds in all wells and then LPS (200 ng/ml) was added to wounded cells except control group. After 3 h cells were treated with DMSO (control) or SZ-3 (5 μM). The wound images were taken at 2 h intervals for 58 h. Data were processed and analyzed by using IncuCyte software.
In response to brain injury, microglia transform into an activated state and migrate to the damaged area. This migration leads to an accumulation of activated microglia around the injury site resulting in vicious cycle of microglial activation and further release of inflammatory cytokines. To elucidate whether SZ-3 can stop or reduce the migration of activated microglial cells towards the injury site, a scratch wound assay was performed. At different time intervals, wound confluence, relative wound, and wound width metrics were assayed to analyze the migration of the microglial cells.
HMC3 cells (30,000 cells/well) were seeded onto a poly-D-lysine hydrobromidecoated-coated 96-well culture plate (corning) and placed overnight in a 37° C. IncuCyte S3 (Essen BioScience) supplied with 5% CO2. WoundMaker (Essen BioScience) was used to simultaneously create wounds in all wells then washed twice with culture medium. LPS (200 ng/ml) was added to wounded cells except control group immediately after the wash. 3 h later cells were treated with DMSO (control) or SZ-3 (5 μM). The wound images were taken at 2 h intervals for 72 h. Data were processed and analyzed by using IncuCyte software.

Sequence of cofilin (Homo sapiens, UniProt P23528) (P23528 whole entry): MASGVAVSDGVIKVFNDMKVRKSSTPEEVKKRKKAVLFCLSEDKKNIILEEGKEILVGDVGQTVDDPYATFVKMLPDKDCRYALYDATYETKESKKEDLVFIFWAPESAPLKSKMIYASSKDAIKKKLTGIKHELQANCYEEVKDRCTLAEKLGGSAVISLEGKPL

CC(C)(C)c1ccc(O)c(CN(Cc2cc(C(C)(C)C)ccc2O)C2CCC(NC(N)=O)CC2)c1 (centres unmarked) [SZ-3, 4-{bis[(5-tert-butyl-2-hydroxyphenyl)methyl]amino}cyclohexyl urea]
NF-κB expression level [1]: significantly reduced | severing and depolymerizing activity of cofilin on F-actin [2]: prevented the severing and depolymerizing activity of cofilin; also recorded: binds to cofilin | cell death after experimental ICH ([3]; FIG. 13, SZ-3 1 mg/kg and 10 mg/kg versus vehicle, fluorescence): barely any cell death; also recorded: reduces cell death after experimental ICH | motor function assessed by rotarod ([3]; SZ-3 1 and 10 mg/kg i.p. 3 h after hemorrhage then every 12 h for 3 days, day 2 and 3): significantly reversed | grip strength ([3]; SZ-3 1 and 10 mg/kg i.p., after hemorrhage): showed enhanced grip strength | lesions in the mice ([3]; mice treated with SZ-3): no lesions formed | grip of sham mice ([3]; sham mice, no induced hemorrhage): improved the grip of the mice even without hemorrhage | toxicity in SHSY cells [4]: did not show any signs of toxicity; also recorded: No toxicity was observed | cell death induced by thrombin, best concentration ([5]; SZ-3 10 μM): showing the best effect | cell death induced by thrombin ([5]; SZ-3 20, 10, 5 μM after 3 h, MTT after 24 h): significantly reversed the cell death; also recorded: significantly restored cell death induced by thrombin | cofilin expression [6]: significantly reduced cofilin expression | TNF-α levels [7]: significantly reduced TNF-α levels; also recorded: significantly reduced NO and TNF-α release | cofilin expression ([8]; SZ-3 5 μM (FIG. 11 legend)): reduced by treatment with 5 μM of SZ-3 | cofilin level ([8]; SZ-3 10 μM): significant decrease in cofilin level was observed only in 10 μM | cofilin expression level ([8]; SZ-3 10, 5 μM after 3 h, WB after 24 h): significantly reduced | toxicity in LPS-challenged HMC3 cells [9]: No cell toxicity was observed | NO release ([10]; LPS 0.1 μg/mL, different concentrations of SZ-3): significantly reduced NO | NO release ([10]; LPS, SZ-3 5 μM, p<0.001): significantly reduced NO release | NO release ([10]; LPS, SZ-3 10 μM): significance was at p<0.01 | phosphocofilin expression level [11]: reversed the expression levels | solubility [12]: no solubility issues | cell death induced by thrombin [13]: significantly restored cell death induced by thrombin | distance between the migrating edges of the wound (wound width) ([14]; SZ-3 5 μM after 3 h): in between | microglial migration and proliferation ([14]; SZ-3 5 μM after 3 h): reduces the proliferation and migration of the microglial cells; also recorded: reduced microglial migration and proliferation | confluence of cells within the wound region ([14]; SZ-3 5 μM after 3 h, first 24 h): less with SZ-3 treated cells relative to non-treated cells | cell density in the wound area relative to outside the wound area ([14]; SZ-3 5 μM, after the 24 h of treatment): slow increase rate in cell density in the wound area
